Assay results: patent US10138274B2, “Crystal of cyclic peptide compound, preparation method for same and uses thereof” (SHANGHAI TECHWELL BIOPHARMACEUTICAL CO., LTD, priority 2014, dated 2018)
Numbered stars: 1 amine (or outer) side, 2 acyl side, 3 side chain; on linkers, the order of the positions; unused ones are H or OH. Bridge positions count the residues as written; N and C are the ends. Square brackets hold non-standard residues; d marks the D form. Peptide text beside a SMILES is read from it. * marks the point of attachment. hTyr(3S-OH,4S-OH,3'-OSO3H) = N[C@H](C(=O)O)[C@H](O)[C@@H](O)c1ccc(O)c(OS(=O)(=O)O)c1; Orn(4R-OH,5R-OH) = O=C([C@H](C[C@@H](O)[C@@H](O)N[*:3])N[*:1])[*:2]; Pro(3S-OH,4S-Me) = C[C@H]1CN[C@H](C(=O)O)[C@H]1O; X1 = CCCCCOc1ccc(-c2cc(-c3ccc(C(=O)*)cc3)no2)cc1; Gln(3R-OH) = NC(=O)C[C@@H](O)[C@H](N)C(=O)O; Hyp = O=C(O)[C@@H]1C[C@@H](O)CN1

Experiment: Purity and stability test: samples sealed at 25° C. for 30 days, purity by HPLC
Format: physicochemical
Conditions: for Purity of initial sample: before storage, HPLC purity (baseline of the stability test); for Purity of sample after stored at 25° C. for 30 days: sealed, HPLC purity
From the text: High performance liquid chromatography (HPLC) is a common method for determining the purity of a compound, wherein a liquid is used as the mobile phase and a high-pressure transfusion system is used for pumping the mobile phase, such as single solvents with different polarities, a mixture of solvents at different proportions, or buffers, into a column packed with a stationary phase. Each component is separated in the column, and then enters into a detector for detection, thereby analyzing a sample. In the present invention, HPLC is used for determining the purity of the compound of formula I and studying the stability of a sample. The HPLC method is as follows:
Analysis Column: YMC-ODS 250×4.6 mm, 5 μm;
Mobile phase: acetonitrile:phosphate buffer (pH 3.0)=45:70;
Column temperature: 35° C.;
Diluent: aqueous phosphate buffer;
Detection wavelength: 210 nm;
In this Example, the purity and stability of the samples obtained in Comparative Examples and Examples were compared. The method used is as follows:
Crystals A-C of the compound of formula I prepared in Examples 2, 11 and 15, the crystal of B82 type obtained in Comparative Example 1 and the amorphous solid obtained in Example 1 were taken respectively and sealed at 25° C. for 30 days. And then the content of impurities in the sample was analyzed. Results of comparing the stability of crystals A-C of the compound of formula I according to the present invention, the crystal of B82 type and the amorphous solid are shown in the following table: […]

CCCCCOc1ccc(-c2cc(-c3ccc(C(=O)N[C@H]4C[C@@H](O)[C@@H](O)NC(=O)[C@@H]5[C@@H](O)[C@@H](C)CN5C(=O)[C@H]([C@H](O)CC(N)=O)NC(=O)[C@H]([C@H](O)[C@@H](O)c5ccc(O)c(OS(=O)(=O)[O-])c5)NC(=O)[C@@H]5C[C@@H](O)CN5C(=O)[C@H]([C@@H](C)O)NC4=O)cc3)no2)cc1.[Na+] [Amorphous solid, Sodium 5-[(1S,2S)-2-[(3S,6S,9S,11R,15S,18S,20R,21R,24S,25S,26S)-3-[(R)-2-carbamoyl-1-hydroxyethyl]-11,20,21,25-tetrahydroxy-15-[(R)-1-hydroxyethyl]-26-methyl-2,5,8,14,17,23-hexaoxo-18-[4-[5-(4-pentoxyphenyl)isoxazol-3-yl]benzoylamino]-1,4,7,13,16,22-hexaazatricyclo[22.3.0.0^9,13]heptacosan-6-yl]-1,2-dihydroxyethyl]-2-hydroxy phenyl sulfate., reference compound] (X1-[Orn(4R-OH,5R-OH)]T[Hyp][hTyr(3S-OH,4S-OH,3'-OSO3H)][Gln(3R-OH)][Pro(3S-OH,4S-Me)]; lactam 1-C)
Purity of initial sample: 99.38%
Purity of sample after stored at 25° C. for 30 days: 89.27%

CCCCCOc1ccc(-c2cc(-c3ccc(C(=O)N[C@H]4C[C@@H](O)[C@@H](O)NC(=O)[C@@H]5[C@@H](O)[C@@H](C)CN5C(=O)[C@H]([C@H](O)CC(N)=O)NC(=O)[C@H]([C@H](O)[C@@H](O)c5ccc(O)c(OS(=O)(=O)[O-])c5)NC(=O)[C@@H]5C[C@@H](O)CN5C(=O)[C@H]([C@@H](C)O)NC4=O)cc3)no2)cc1.[Na+] [B82-type Crystal, Sodium 5-[(1S,2S)-2-[(3S,6S,9S,11R,15S,18S,20R,21R,24S,25S,26S)-3-[(R)-2-carbamoyl-1-hydroxyethyl]-11,20,21,25-tetrahydroxy-15-[(R)-1-hydroxyethyl]-26-methyl-2,5,8,14,17,23-hexaoxo-18-[4-[5-(4-pentoxyphenyl)isoxazol-3-yl]benzoylamino]-1,4,7,13,16,22-hexaazatricyclo[22.3.0.0^9,13]heptacosan-6-yl]-1,2-dihydroxyethyl]-2-hydroxy phenyl sulfate., reference compound] (X1-[Orn(4R-OH,5R-OH)]T[Hyp][hTyr(3S-OH,4S-OH,3'-OSO3H)][Gln(3R-OH)][Pro(3S-OH,4S-Me)]; lactam 1-C)
Purity of initial sample: 99.50%
Purity of sample after stored at 25° C. for 30 days: 96.98%

CCCCCOc1ccc(-c2cc(-c3ccc(C(=O)N[C@H]4C[C@@H](O)[C@@H](O)NC(=O)[C@@H]5[C@@H](O)[C@@H](C)CN5C(=O)[C@H]([C@H](O)CC(N)=O)NC(=O)[C@H]([C@H](O)[C@@H](O)c5ccc(O)c(OS(=O)(=O)[O-])c5)NC(=O)[C@@H]5C[C@@H](O)CN5C(=O)[C@H]([C@@H](C)O)NC4=O)cc3)no2)cc1.[Na+] [Crystal A, Sodium 5-[(1S,2S)-2-[(3S,6S,9S,11R,15S,18S,20R,21R,24S,25S,26S)-3-[(R)-2-carbamoyl-1-hydroxyethyl]-11,20,21,25-tetrahydroxy-15-[(R)-1-hydroxyethyl]-26-methyl-2,5,8,14,17,23-hexaoxo-18-[4-[5-(4-pentoxyphenyl)isoxazol-3-yl]benzoylamino]-1,4,7,13,16,22-hexaazatricyclo[22.3.0.0^9,13]heptacosan-6-yl]-1,2-dihydroxyethyl]-2-hydroxy phenyl sulfate.] (X1-[Orn(4R-OH,5R-OH)]T[Hyp][hTyr(3S-OH,4S-OH,3'-OSO3H)][Gln(3R-OH)][Pro(3S-OH,4S-Me)]; lactam 1-C)
Purity of initial sample: 99.68%
stability compared with the B82-type crystal and the amorphous solid (result in words): significantly superior than that of the crystal of B82 type
Purity of sample after stored at 25° C. for 30 days: 99.65%

CCCCCOc1ccc(-c2cc(-c3ccc(C(=O)N[C@H]4C[C@@H](O)[C@@H](O)NC(=O)[C@@H]5[C@@H](O)[C@@H](C)CN5C(=O)[C@H]([C@H](O)CC(N)=O)NC(=O)[C@H]([C@H](O)[C@@H](O)c5ccc(O)c(OS(=O)(=O)[O-])c5)NC(=O)[C@@H]5C[C@@H](O)CN5C(=O)[C@H]([C@@H](C)O)NC4=O)cc3)no2)cc1.[Na+] [Crystal B, Sodium 5-[(1S,2S)-2-[(3S,6S,9S,11R,15S,18S,20R,21R,24S,25S,26S)-3-[(R)-2-carbamoyl-1-hydroxyethyl]-11,20,21,25-tetrahydroxy-15-[(R)-1-hydroxyethyl]-26-methyl-2,5,8,14,17,23-hexaoxo-18-[4-[5-(4-pentoxyphenyl)isoxazol-3-yl]benzoylamino]-1,4,7,13,16,22-hexaazatricyclo[22.3.0.0^9,13]heptacosan-6-yl]-1,2-dihydroxyethyl]-2-hydroxy phenyl sulfate.] (X1-[Orn(4R-OH,5R-OH)]T[Hyp][hTyr(3S-OH,4S-OH,3'-OSO3H)][Gln(3R-OH)][Pro(3S-OH,4S-Me)]; lactam 1-C)
Purity of initial sample: 99.55%
Purity of sample after stored at 25° C. for 30 days: 99.50%

CCCCCOc1ccc(-c2cc(-c3ccc(C(=O)N[C@H]4C[C@@H](O)[C@@H](O)NC(=O)[C@@H]5[C@@H](O)[C@@H](C)CN5C(=O)[C@H]([C@H](O)CC(N)=O)NC(=O)[C@H]([C@H](O)[C@@H](O)c5ccc(O)c(OS(=O)(=O)[O-])c5)NC(=O)[C@@H]5C[C@@H](O)CN5C(=O)[C@H]([C@@H](C)O)NC4=O)cc3)no2)cc1.[Na+] [Crystal C, Sodium 5-[(1S,2S)-2-[(3S,6S,9S,11R,15S,18S,20R,21R,24S,25S,26S)-3-[(R)-2-carbamoyl-1-hydroxyethyl]-11,20,21,25-tetrahydroxy-15-[(R)-1-hydroxyethyl]-26-methyl-2,5,8,14,17,23-hexaoxo-18-[4-[5-(4-pentoxyphenyl)isoxazol-3-yl]benzoylamino]-1,4,7,13,16,22-hexaazatricyclo[22.3.0.0^9,13]heptacosan-6-yl]-1,2-dihydroxyethyl]-2-hydroxy phenyl sulfate.] (X1-[Orn(4R-OH,5R-OH)]T[Hyp][hTyr(3S-OH,4S-OH,3'-OSO3H)][Gln(3R-OH)][Pro(3S-OH,4S-Me)]; lactam 1-C)
Purity of initial sample: 99.64%
Purity of sample after stored at 25° C. for 30 days: 99.43%
